In test [1] the test system is AsPC-1 human pancreatic adenocarcinoma. As to the kind of experiment: CellTiter-Glo cancer cell line proliferation assay, AsPC-1. The format is cell-based. The following applies: Homo sapiens, ASPC1, 24 hr. As for the experimental part: (§1) Cell lines were cultured according to ATCC and recommendations.
(§2) CellTiter-Glo® Reagent Cancer Cell Line Proliferation Assays
(§3) Cells were plated in 96-well tissue culture plates at 4,000 cells/well and incubated at 37° C./5% CO2 for 24 hr in 100 μl of media. […] Cells were then treated with test compounds at various concentrations with a final concentration of 0.5% DMSO/well, and then incubated at 37° C./5% CO2 for 24 hr. 100 μl of CellTiter-Glo® Reagent (Promega Corporation, Madison, WI) was added to each well and processed according manufacturer's protocol. Results were analyzed and IC50-values were calculated in GraphPad 7 software.
On the technique in general: Cellular ATP, detected with luciferase, serves as a proxy for viable cell number.

Test [2] has as its system A-427 human lung carcinoma. As to the kind of experiment: CellTiter-Glo cancer cell line proliferation assay, A-427. The format is cell-based. As to conditions: Homo sapiens, A-427, 24 hr, read-out: A427 at 24 hrs, IC50. As for the experimental part: as §1, §2, §3
In the next test the target is T1, KRAS(G12D)/SOS1 (Homo sapiens, UniProt P01116, G12D).
T1 construct: purchased Cisbio 63ADK000CB16PEG
T1 sequence (P01116 1-188 isoform P01116-2 G12D): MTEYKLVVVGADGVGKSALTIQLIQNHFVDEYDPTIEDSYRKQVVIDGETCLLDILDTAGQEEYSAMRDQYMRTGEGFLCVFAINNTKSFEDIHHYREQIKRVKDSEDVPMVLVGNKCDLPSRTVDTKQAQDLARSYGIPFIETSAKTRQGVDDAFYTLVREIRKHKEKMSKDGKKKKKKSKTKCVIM
Kind of test: KRAS(G12D)/SOS1 homogeneous time-resolved fluorescence (HTRF) assay. The following applies: absence of GTP, 4° C. for 3 hr. In kind it is binding. As for the experimental part:
The test compound was mixed and incubated with reaction components, incubated in a sealed plate at 4° C. for 3 hr and fluorescence was measured using a PerkinElmer Envision plate reader.

For a further test, the target named is T2, KRAS(G12D) (Homo sapiens, UniProt P01116, G12D).
T2 construct: endogenous in cells; host or cells: SW1990
T2 sequence (P01116 1-188 isoform P01116-2 G12D): as above
As to the kind of experiment: SW1990 WB assay (degradation DC50, Dmax). In kind it is cell-based. The following applies: Western blot, SW1990 cells. In general terms: A western blot detects proteins with antibodies after separation by electrophoresis.

pIC50: −log10 of the molar value.

Take `C#Cc1cccc2cc(O)cc(-c3ncc4c(N5CC6CCC(C5)N6)nc(OCC5(CN6CCN(CC7CCN(c8cc9c(cc8F)C(=O)N(C8CCC(=O)NC8=O)C9)CC7)CC6)CC5)nc4c3F)c12` (centres unmarked) [Compound 90]: the pIC50 in test [1] and in test [2] was above 7.00 throughout.
Take `O=C1CCC(N2C(=O)c3cccc(N4CCC(CN5CCN(CC6(COc7nc(N8CC9CCC(C8)N9)c8cnc(-c9cc(O)cc%10ccccc9%10)c(F)c8n7)CC6)CC5)CC4)c3C2=O)C(=O)N1` (centres unmarked) [Compound 42]: the values for the pIC50 (at KRAS(G12D)/SOS1; in test [1]; in test [2]) were above 7.00, below 6.00 and below 6.00, respectively.
On to `C#Cc1c(F)ccc2cc(O)cc(-c3nc(OC)c4c(N5CCN(C)[C@@H](CC#N)C5)nc(OCC5(CN6CCN(CC7CCN(c8ccc9c(c8)CN(C8CCC(=O)NC8=O)C9=O)CC7)CC6)CC5)nc4c3F)c12` (some centres unmarked) [Compound 106], for which the pIC50 (commonly the negative decadic logarithm of the IC50, by convention in mol/L) was above 7.00 on KRAS(G12D)/SOS1 and below 6.00 in test [1].
Turning to `CN1C[C@H](N2CCC(C(=O)N3CCN(c4ccc5c(c4)C(=O)N(C4CCC(=O)NC4=O)C5=O)CC3)CC2)C[C@@H]1COc1nc(N2CC3CCC(C2)N3)c2cnc(-c3cc(O)cc4ccccc34)c(F)c2n1` (some centres unmarked) [Compound 46], the pIC50 at KRAS(G12D)/SOS1 was above 7.00; in test [1], below 6.00; in test [2], below 6.00.
For `O=C1CCC(N2C(=O)c3ccc(CN4CCN(CC5(COc6nc(N7CC8CCC(C7)N8)c7cnc(-c8cc(O)cc9ccccc89)c(F)c7n6)CC5)CC4)cc3C2=O)C(=O)N1` (centres unmarked) [Compound 41], the figures for the pIC50 (against KRAS(G12D)/SOS1; in test [1]; in test [2]) were above 7.00, below 6.00 and below 6.00, respectively.
Regarding `C#Cc1cccc2cc(O)cc(-c3nc(OC)c4c(N5CC6CCC(C5)N6C)nc(OCC5(CN6CCN(CC7CCN(c8ccc9c(c8)CN(C8CCC(=O)NC8=O)C9=O)CC7)CC6)CC5)nc4c3F)c12` (centres unmarked) [Compound 105], the pIC50 on KRAS(G12D)/SOS1 is above 7.00; in test [1], below 6.00.
In the case of `O=C1CCC(N2C(=O)c3ccc(N4CCC(C(=O)N5CCN(CC6(COc7nc(N8CC9CCC(C8)N9)c8cnc(-c9cc(O)cc%10ccccc9%10)c(F)c8n7)CC6)CC5)CC4)cc3C2=O)C(=O)N1` (centres unmarked) [Compound 39], the pIC50 against KRAS(G12D)/SOS1 was above 7.00; in test [1], below 6.00; in test [2], below 6.00.
Consider `C#Cc1c(F)ccc2cc(O)cc(-c3ncc4c(N5CCN(C(=O)CC)[C@@H](CC#N)C5)nc(OCC5(CN6CCN(CC7CCN(c8ccc9c(c8)CN(C8CCC(=O)NC8=O)C9=O)CC7)CC6)CC5)nc4c3F)c12` (some centres unmarked) [Compound 97], for which the figures for the pIC50 (against KRAS(G12D)/SOS1; in test [1]; in test [2]) were above 7.00, below 6.00 and below 6.00, respectively.
On to `C#Cc1cccc2cc(O)cc(-c3ncc4c(N5CC6CCC(C5)N6)nc(OCC5(CN6CCN(CC7CCN(CC(=O)N[C@@H](C(=O)N8C[C@@H](O)C[C@@H]8C(=O)NCc8ccc(-c9scnc9C)cc8)C(C)(C)C)CC7)CC6)CC5)nc4c3F)c12` [Compound 82], for which the pIC50 in test [1] and in test [2] was below 6.00 in each case.
On to `CN1C[C@H](N2CCN(C(=O)C3CCN(c4ccc5c(c4)CN(C4CCC(=O)NC4=O)C5=O)CC3)CC2)C[C@@H]1COc1nc(N2CC3CCC(C2)N3)c2cnc(-c3cc(O)cc4ccccc34)c(F)c2n1` (some centres unmarked) [Compound 44], for which the values for the pIC50 (on KRAS(G12D)/SOS1; in test [1]; in test [2]) were above 7.00, below 6.00 and below 6.00, respectively.
In turn, `C#Cc1c(F)ccc2cc(O)cc(-c3nc(OC)c4c(N5CC6CCC(C5)N6)nc(OCC5(CN6CCN(C7CCN(c8ccc9c(c8)CN(C8CCC(=O)NC8=O)C9=O)CC7)CC6)CC5)nc4c3F)c12` (centres unmarked) [Compound 112] gave a pIC50 at KRAS(G12D)/SOS1 above 7.00. Moreover, the DC50 (commonly the midpoint of the concentration-degradation curve) at KRAS(G12D) was below 100 nM.
For `CN1C[C@H](N2CCN(C(=O)C3CCN(c4ccc5c(c4)C(=O)N(C4CCC(=O)NC4=O)C5=O)CC3)CC2)C[C@@H]1COc1nc(N2CC3CCC(C2)N3)c2cnc(-c3cc(O)cc4ccccc34)c(F)c2n1` (some centres unmarked) [Compound 37], the results for the pIC50 (against KRAS(G12D)/SOS1; in test [1]; in test [2]) were above 7.00, below 6.00 and below 6.00, respectively.
`C#Cc1cccc2cc(O)cc(-c3ncc4c(N5CC6CCC(C5)N6)nc(OCC5(CN6CCN(C(=O)N7CCN(c8ccc9c(c8)CN(C8CCC(=O)NC8=O)C9=O)CC7)CC6)CC5)nc4c3F)c12` (centres unmarked) [Compound 88]: the figures for the negative-log IC50 (pIC50) in test [1] and in test [2] were 6.00 to 7.00 and below 6.00, respectively.
In the case of `C#Cc1c(F)ccc2cc(O)cc(-c3ncc4c(N5CC6CCC(C5)N6)nc(OCC5(CN6CCN(CC7CCN(c8ccc9c(c8)C(=O)N(C8CCC(=O)NC8=O)C9=O)CC7)CC6)CC5)nc4c3F)c12` (centres unmarked) [Compound 59], the pIC50 was above 7.00 at KRAS(G12D)/SOS1, 6.00 to 7.00 in test [1] and 6.00 to 7.00 in test [2].
Turning to `O=C1CCC(N2C(=O)c3ccc(N4CCC(CN5CCN(CC6(COc7nc(N8CC9CCC(C8)N9)c8cnc(-c9cc(O)cc%10ccccc9%10)c(F)c8n7)CC6)CC5)CC4)cc3C2=O)C(=O)N1` (centres unmarked) [Compound 47], the pIC50 against KRAS(G12D)/SOS1 was above 7.00; in test [1], below 6.00; in test [2], below 6.00.
On to `O=C1CCC(N2C(=O)c3ccc(CN4CCN([C@H]5CN6CCC[C@@]6(COc6nc(N7CC8CCC(C7)N8)c7cnc(-c8cc(O)cc9ccccc89)c(F)c7n6)C5)CC4)cc3C2=O)C(=O)N1` (some centres unmarked) [Compound 50], for which the pIC50 at KRAS(G12D)/SOS1 is above 7.00; in test [1], below 6.00; in test [2], below 6.00.
Take `C#Cc1cccc2cccc(-c3ncc4c(N5CC6CCC(C5)N6)nc(OCC5(CN6CCN(CC7CCN(c8ccc9c(c8)C(=O)N(C8CCC(=O)NC8=O)C9=O)CC7)CC6)CC5)nc4c3F)c12` (centres unmarked) [Compound 48]: the pIC50 at KRAS(G12D)/SOS1 is above 7.00; in test [1], below 6.00; in test [2], below 6.00.
On to `CN1C[C@H](N2CCN(CC3CCN(c4ccc5c(c4)C(=O)N(C4CCC(=O)NC4=O)C5=O)CC3)CC2)C[C@@H]1COc1nc(N2CC3CCC(C2)N3)c2cnc(-c3cc(O)cc4ccccc34)c(F)c2n1` (some centres unmarked) [Compound 34], for which the pIC50 was above 7.00 on KRAS(G12D)/SOS1, below 6.00 in test [1] and below 6.00 in test [2].
Consider `CN1C[C@H](N2CCN(Cc3ccc4c(c3)C(=O)N(C3CCC(=O)NC3=O)C4=O)CC2)C[C@@H]1COc1nc(N2CC3CCC(C2)N3)c2cnc(-c3cc(O)cc4ccccc34)c(F)c2n1` (some centres unmarked) [Compound 36], for which the pIC50 is above 7.00 on KRAS(G12D)/SOS1, below 6.00 in test [1] and below 6.00 in test [2].
In the case of `C#Cc1c(F)ccc2cc(O)cc(-c3nc(OC)c4c(N5CCN(C(=O)CC)[C@H](CC#N)C5)nc(OCC5(CN6CCN(CC7CCN(c8ccc9c(c8)CN(C8CCC(=O)NC8=O)C9=O)CC7)CC6)CC5)nc4c3F)c12` (some centres unmarked) [Compound 92], the pIC50 is above 7.00 against KRAS(G12D)/SOS1, below 6.00 in test [1] and below 6.00 in test [2].
For the molecule `C#Cc1cccc2cccc(-c3ncc4c(N5CC6CCC(C5)N6)nc(OCC5(CN6CCN(C(=O)C7CCN(c8ccc9c(c8)CN(C8CCC(=O)NC8=O)C9=O)CC7)CC6)CC5)nc4c3F)c12` (centres unmarked) [Compound 51], the pIC50 against KRAS(G12D)/SOS1 is above 7.00; in test [1], below 6.00; in test [2] it was below 6.00.
For `O=C1CCC(N2Cc3cc(CN4CCN(CC5(COc6nc(N7CC8CCC(C7)N8)c7cnc(-c8cc(O)cc9ccccc89)c(F)c7n6)CC5)CC4)ccc3C2=O)C(=O)N1` (centres unmarked) [Compound 40], the results for the negative-log IC50 (pIC50) (at KRAS(G12D)/SOS1; in test [1]; in test [2]) were above 7.00, below 6.00 and below 6.00, respectively.
For the molecule `C#Cc1cccc2cccc(-c3ncc4c(N5CC6CCC(C5)N6)nc(OC[C@H]5C[C@@H](N6CCN(C[C@H]7CC[C@H](Nc8ccc9c(c8)C(=O)N(C8CCC(=O)NC8=O)C9=O)CC7)CC6)CN5C)nc4c3F)c12` (some centres unmarked) [Compound 77], the results for the pIC50 (against KRAS(G12D)/SOS1; in test [1]; in test [2]) were above 7.00, below 6.00 and below 6.00, respectively.
As for `O=C1CCC(N2Cc3cc(N4CCN(CC5(COc6nc(N7CC8CCC(C7)N8)c7cnc(-c8cccc9cccc(Cl)c89)c(F)c7n6)CC5)CC4)ccc3C2=O)C(=O)N1` (centres unmarked) [Compound 80], the pIC50 against KRAS(G12D)/SOS1 is above 7.00; in test [1], below 6.00; in test [2], below 6.00.
Molecule `C#Cc1c(F)ccc2cc(O)cc(-c3ncc4c(N5CC6CCC(C5)N6)nc(OCC5(CN6CCC(CN7CCC(c8ccc9c(c8)CN(C8CCC(=O)NC8=O)C9=O)CC7)CC6)CC5)nc4c3F)c12` (centres unmarked) [Compound 111] had a pIC50 at KRAS(G12D)/SOS1 above 7.00. In addition, on KRAS(G12D), the DC50 is below 100 nM and the Dmax (usually the largest share of the target that was removed) is above 50%.
`COc1nc(-c2cc(O)cc3ccccc23)c(F)c2nc(OCC3(CN4CCN(CC5CCN(c6ccc7c(c6)C(=O)N(C6CCC(=O)NC6=O)C7=O)CC5)CC4)CC3)nc(N3CC4CCC(C3)N4)c12` (centres unmarked) [Compound 66]: the pIC50 against KRAS(G12D)/SOS1 is above 7.00; in test [1], 6.00 to 7.00; in test [2], 6.00 to 7.00.
For `CN1C[C@H](N2CCN(CC3CCN(c4cccc5c4C(=O)N(C4CCC(=O)NC4=O)C5=O)CC3)CC2)C[C@@H]1COc1nc(N2CC3CCC(C2)N3)c2cnc(-c3cc(O)cc4ccccc34)c(F)c2n1` (some centres unmarked) [Compound 35], the pIC50 on KRAS(G12D)/SOS1 is above 7.00; in test [1], below 6.00; in test [2] it was below 6.00.
In the case of `C#Cc1c(F)ccc2cc(O)cc(-c3ncc4c(N5CC6CCC(C5)N6)nc(OCC5(CN(C)CC6CCN(c7ccc8c(c7)C(=O)N(C7CCC(=O)NC7=O)C8)CC6)CC5)nc4c3F)c12` (centres unmarked) [Compound 89], the pIC50 in test [1] and in test [2] was below 6.00 each time.
With `C#Cc1cccc2cccc(-c3ncc4c(N5CC6CCC(C5)N6)nc(OC[C@H]5CC[C@@H](CN6CCN(CC7CCC(Nc8ccc9c(c8)C(=O)N(C8CCC(=O)NC8=O)C9=O)CC7)CC6)N5C)nc4c3F)c12` (some centres unmarked) [Compound 79], the values for the pIC50 (against KRAS(G12D)/SOS1; in test [1]; in test [2]) were above 7.00, below 6.00 and below 6.00, respectively.

The values above are taken from patent US20250018047A1, “METHODS AND COMPOSITIONS FOR TARGETED PROTEIN DEGRADATION” (Ranok Therapeutics (Hangzhou) Co. Ltd., priority 2021, published 2025).
